Values of other authors in article PMC13601336 (Frontiers in Pharmacology, 2026).

Target: T1, UGT1A1 (Homo sapiens, UniProt P22309)
T1 construct: purchased BD Gentest (Woburn, MA, USA)
T1 sequence (P22309 26-533): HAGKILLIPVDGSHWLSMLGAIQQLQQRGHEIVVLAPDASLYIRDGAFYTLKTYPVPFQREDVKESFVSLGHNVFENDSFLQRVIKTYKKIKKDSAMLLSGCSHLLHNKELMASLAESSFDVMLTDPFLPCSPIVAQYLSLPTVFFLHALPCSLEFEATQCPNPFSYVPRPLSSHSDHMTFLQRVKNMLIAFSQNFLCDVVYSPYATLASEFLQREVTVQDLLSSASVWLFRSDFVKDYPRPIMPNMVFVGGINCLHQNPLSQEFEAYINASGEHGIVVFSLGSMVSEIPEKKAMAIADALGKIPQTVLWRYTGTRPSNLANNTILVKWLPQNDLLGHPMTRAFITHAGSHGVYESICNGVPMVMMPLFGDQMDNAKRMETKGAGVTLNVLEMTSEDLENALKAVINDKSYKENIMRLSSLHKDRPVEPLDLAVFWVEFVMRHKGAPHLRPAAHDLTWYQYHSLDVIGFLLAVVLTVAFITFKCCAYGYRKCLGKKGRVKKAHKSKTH
Details: ref Zhang et al., 2021

## O=c1c(O)c(-c2ccc(O)c(O)c2)oc2cc(O)cc(O)c12 [Quercetin, quercetin]
  Ki: 2180 nM
